Reference: patent US20080113956A1, “Substituted Porphyrins” (priority 1997, published 2008)
Like-named read-outs stand apart in the source and are kept apart here.

Assays:
[1] = SOD-like activity in vitro (xanthine/xanthine oxidase, ferricytochrome c; McCord and Fridovich); format: biochemical; settings: for rate of dismutation (kcat): Example VII
Procedure: (§1) SOD activity can be monitored in the presence and absence of EDTA using the method of McCord and Fridovich (J. Biol. Chem. 244:6049 (1969)). The efficacy of a mimetic can also be determined by measuring the effect of the mimetic on the aerobic growth of a SOD null E. coli strain versus a parental strain lacking the specific mutations. Specifically, parental E. coli (AB1157) and SOD null E. coli. (JI132) can be grown in M9 medium containing 0.2% casamino acids and 0.2% glucose at pH 7.0 and 37° C.; growth can be monitored in terms of turbidity followed at 700 nm.
The superoxide dismutase activity of the mimetics of the invention depends on a number of factors, including thermodynamic factors (eg the metal-centered redox-potential see FIG. 1)), and kinetic factors (eg electrostatic facilitation).
Superoxide dismuting activity. The SOD-like activities were measured using the xanthine/xanthine oxidase system as a source of O2^− and ferricytochrome c as its indicating scavenger (McCord et al, J. Biol. Chem. 244:6049 (1969)). O2— was produced at the rate of 1.2 μM per minute and reduction of ferricytochrome c was followed at 550 nm. Assays were conducted in presence of 0.1 mM EDTA in 0.05 M phosphate buffer (pH 7.8). Rate constants for the reaction of the compounds were based upon competition with […] cytochrome c, kcyt c=2.6×10^5 M^−1s^−1 (Butler et al, J. Biol. Chem. 257:10747 (1982)). All measurements were done at 25° C. Cytochrome c concentration was at least 10^3-fold higher than the concentrations of the SOD mimics and the rates were linear for at least two minutes, during which the compounds intercepted ˜100 equivalents of O2^−, thus confirming the catalytic nature of O2^− dismutation in presence of the mimics.
Superoxide dismuting activities. SOD-like activities were measured as described previously, based on competition with cytochrome c (McCord et al, J. Biol. Chem. 244:6049 (1969)). MnClxTE-2-PyP^5+ SOD-like activities are reported in Table 5, IC50 (M) representing the concentration for one unit of activity (or the concentration that causes 50% inhibition of cytochrome c reduction by O2^−) and kcat (M^−1s^−1) representing the rate constant for the superoxide dismutation reaction. The SOD-like activity per mole of MnCl4TE-2-PyP^5 is approximately 2-, 7- and 100-fold higher than MnOBTMPyP^4+, MnTM-2-PyP^5+ and MnTM-4PyP^5+, respectively (Faulkner et al, J. Biol. Chem. 269:23471 (1994); Batinic-Haberle et al, Arch. Biochem. Biophys. 343:225 (1997); Batinic-Haberle et al, J. Biol. Chem. 273:24521 (1998)). The SOD-like activity of MnCl4TE-2-PyP^5+ represents 20% of the activity of the Cu,Zn-SOD enzyme on a molar basis (40% per active site considering that the enzyme has two active sites) (Klug-Roth et al, J. Am. Chem. Soc. 95:2786 (1973)).

SOD null E. coli (JI132) = assay: Aerobic growth of SOD null E. coli strain versus parental strain; format: cell-based; settings: for aerobic growth (A700) of SOD null E. coli cells: 20 μM, glucose minimal medium (M9) plus 5 essential amino acids, JI132
Procedure: FIG. 3. SOD activity in vivo (E. coli) of 1, 2, 3* and 4* (20 μM) in minimal medium (mixture of atropoisomers, JI=SOD deficient strain, AB parental strain).
as §1
The activity in vivo of the mimetics of the invention can be tested on an E. coli strain deleted of the genes coding for both the MnSOD and FeSOD. In this assay, the efficacy of a mimetic is determined by measuring the effect of the mimetic on the aerobic growth of a SOD null E. coli strain versus a parental strain. Specifically, parental E. coli (AB1157) and SOD null E. coli. (JI132) are grown in M9 medium containing 0.2% casamino acids and 0.2% glucose at pH 7.0 and 37° C.; growth is monitored in terms of turbidity followed at 700 nm.

[2] = Electrochemistry: metal-centered redox potential; format: physicochemical; settings: for Redox Potential (E1/2): metal centered, pH 7.8 if not otherwise specified; for redox potential: text of Example VIII, unit not given
Procedure: Electrochemistry. The electrochemical characterization was performed as described previously on a Voltammetric Analyzer Model 600 (CH instrument) using a glassy carbon electrode (Ag/AgCl reference and Pt auxiliary electrodes), at 0.5 mM porphyrin, pH 7.8 (0.05 M phosphate buffer), 0.1 M NaCl. The potentials were standardized against potassium ferricyanide/potassium ferrocyanide couple (Batinic-Haberle et al, Arch. Biochem. Biophys. 343:225 (1997); Kolthof et al, J. Phys. Chem. 39:945 (1974)).
Electrochemistry. The metal-centered redox behavior of all metalloporphyrin products was reversible. The half-wave potentials (E^O1/2) were calculated as the average of the cathodic and anodic peaks and are given in mV vs NHE (Table 5). The average shift per chlorine is +55 mV (Table 5), which is in agreement with the values previously reported for H2TPP derivatives (between −50 and +70 mV) (Sen et al, Chem. Soc. Faraday Trans. 93:4281 (1997); Autret et al. J. Chem. Soc. Dalton Trans. 2793 (1996); Hariprasad et al, J. Chem. Soc. Dalton Trans. 3429 (1996); Tagliatesta et al, Inorg. Chem. 35:5570 (1996); Ghosh, J. Am. Chem. Soc. 117:4691 (1995); Takeuchi et al, J. Am. Chem. Soc. 116:9730 (1994); Binstead et al, Inorg. Chem. 30:1259 (1991); Giraudeau et al, J. Am. Chem. Soc. 101:3857 (1979)). This shift appears to be higher (˜+65 mV) between 0 and 1, and between 2 and 3 chlorines (Table 5). […] The manganese redox state of MnCl4TE-2-PyP^5 (E^O1/2=+448 mV) and MnOBTMPyP^4+ (E^O1.2=+480 mV) is 3+ and 2+, respectively. This difference may be explained by their difference in terms of redox potential (˜30 mV) but also by structural considerations, for instance an increased distortion of the porphyrin ring in the case of MnOBTMPyP^4+. (Batinic-Haberle et al, Arch. Biochem. Biophys. 343:225 (1997); Ochsenbein et al, Angew. Chem. Int. Ed. Engl. 33:348 (1994)).

[3] = vs NHE, literature comparators, cited from earlier work
[4] = literature comparators, cited from earlier work

CC[n+]1ccccc1-c1c2nc(c(-c3cccc[n+]3CC)c3ccc([n-]3)c(-c3cccc[n+]3CC)c3nc(c(-c4cccc[n+]4CC)c4ccc1[n-]4)C=C3)C=C2.[Mn+3] [MnTE-2-PyP^5+, manganic meso-tetrakis-(N-ethylpyridinium-2-yl)porphyrin]
kcat rate constant for the superoxide dismutation reaction ([1]; 0.1 mM EDTA, 0.05 M phosphate buffer pH 7.8, 25° C.): 5.7 10^7 M^−1 s^−1 | IC50 ([1]; 0.1 mM EDTA, 0.05 M phosphate buffer pH 7.8, 25° C., read-out: IC50 concentration that causes 50% inhibition of cytochrome c reduction by O2^−): 45 nM | aerobic growth (A700) of SOD null E. coli cells (SOD null E. coli (JI132)): increase in A700 | E°1/2 half-wave potential ([2]; vs NHE, 0.5 mM porphyrin, 0.1 M NaCl, 0.05 M phosphate buffer (pH 7.8)): +228 mV

manganese(III) 5,10,15,20-tetrakis(N-methylpyridyl)porphyrin [MnTM-2-PyP^5+]
rate of dismutation (kcat) [1]: 6e+07 M⁻¹ s⁻¹ | SOD activity in vitro relative to the para compound 1 ([1]; in vitro enzymatic assay): more than an order of magnitude more active | E°1/2 half-wave potential of comparison compounds ([3]; listed as MnTM-2-PyP^3−): +220 mV | kcat of comparison compounds ([4]; listed as MnTM-2-PyP^3−): 6.0 10^7 M^−1 s^−1 | aerobic growth (A700) of SOD null E. coli cells (SOD null E. coli (JI132); listed as 3): increase in A700 | toxicity in vivo (E. coli) (SOD null E. coli (JI132); FIG. 3): decreased toxicity | Redox Potential (E1/2) ([2]; vs NHE): +0.22 V | redox potential [2]: +0.22

manganese(III) 5,10,15,20-tetrakis(N-methylpyridyl)porphyrin [MnTM-4-PyP^5+, reference compound]
rate of dismutation (kcat) [1]: 3.8e+06 M⁻¹ s⁻¹ | E°1/2 half-wave potential of comparison compounds [3]: +60 mV | E°1/2 half-wave potential of comparison compounds ([3]; listed as MnTM-4-PyP^5−): +060 mV | kcat of comparison compounds [4]: 0.4 10^7 M^−1 s^−1 | aerobic growth (A700) of SOD null E. coli cells (SOD null E. coli (JI132); listed as 1): did not show an increase in A700 | growth of SOD-deficient Escherichia coli (SOD null E. coli (JI132); Example VII): inhibited growth | Redox Potential (E1/2) ([2]; vs NHE): +0.06 V | redox potential [2]: +0.06 | E1/2 one-electron metal-centered redox-potential ([2]; vs NHE, listed as 1): +0.060 V | half-wave potential (E1/2) ([2]; vs normal hydrogen electrode (NHE), Example VII): +0.060 V
